Values of other authors in patent publication US12433928B2, “Therapeutic treatment for the coronavirus disease COVID-19” (priority 2020, dated 2025).

Tested on: herpes simplex virus type 1 (HSV-1)
Conditions: certain viruses, e.g. HSV-1 in vitro

For `Cc1ccc(C(C)C)c(O)c1` [thymol], the “antiviral activity in medical studies” value is given as “antiviral activity and effectiveness”.
